For one test, the target named is T1, rat EP1 receptor (Rattus norvegicus, UniProt P70597).
T1 construct: expressed in transfected cells
T1 sequence (P70597 1-405): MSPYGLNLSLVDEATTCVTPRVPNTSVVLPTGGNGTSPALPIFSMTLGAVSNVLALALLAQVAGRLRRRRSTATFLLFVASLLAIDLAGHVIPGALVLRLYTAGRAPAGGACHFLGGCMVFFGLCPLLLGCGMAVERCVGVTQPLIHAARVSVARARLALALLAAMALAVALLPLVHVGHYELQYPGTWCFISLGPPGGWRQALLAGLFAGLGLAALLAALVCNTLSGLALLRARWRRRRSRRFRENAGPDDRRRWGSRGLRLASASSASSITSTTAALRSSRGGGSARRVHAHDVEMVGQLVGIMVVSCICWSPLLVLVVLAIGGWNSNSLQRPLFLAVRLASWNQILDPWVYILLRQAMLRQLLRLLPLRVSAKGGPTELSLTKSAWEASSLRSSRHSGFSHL
Description: Test for confirmation of EP1 receptor antagonism (inhibition of PGE2-induced increase in intracellular calcium concentration). The format is cell-based. The settings on record: rat EP1 receptor-expressing COS-1 cells; prostaglandin E2 10 nM; fluorescent calcium indicator, FDSS 7000. As for the experimental part:
Test for Confirmation of EP1 Receptor Antagonism
(1) Preparation of Rat EP1 Expression Vector
Using Rat Kidney BD Marathon-Ready cDNA (Nippon Becton Dickinson Company, Ltd.) as a template, a forward primer shown in (SEQ ID NO:1), and a reverse primer shown in (SEQ ID NO:2), a first run of PCR was carried out using KOD-Plus-Ver 2.0 (Toyobo Co., Ltd.). Further, using this amplification product as a template, a forward primer shown in (SEQ ID NO:3), and a reverse primer shown in (SEQ ID NO:4), a second run of PCR was carried out in the same manner. The amplification product obtained by the second run of PCR was incorporated into a vector (pcDNA3.1 D/V5-His-TOPO (registered trademark), Invitrogen Japan K. K.). By a conventional method, the vector containing this amplification product was introduced to E. coli (One Shot TOP 10 Competent Cells, Invitrogen Corporation) to transform. This transformed E. coli was cultured in an LB agar medium for one day. After the culture, colonies were selected and cultured in an LB liquid medium containing 50 μg/mL of ampicillin. After the culture, the vector was purified using a QIAprep Spin Miniprep Kit (Qiagen K. K.). The base sequence of the insertion site of this vector (SEQ ID NO:5) was compared with the rat EP1 base sequence (Ptger1) registered as Accession No. NM_013100 in publicly-known database (NCBI), and as a result, they all matched except for a single base. Further, the amino acid sequence translated by the base sequence completely matched the amino acid sequence of the rat EP1 receptor registered as an NCBI Accession No. NP_037232. Therefore, it was confirmed that the cloned gene sequence was a base sequence of the rat EP1 receptor and the obtained amino acid sequence was that of the rat EP1 receptor. The pcDNA3.1 D/V5-His-TOPO (registered trademark) to which the nucleic acid shown in (SEQ ID NO:5) had been inserted was taken as a rat EP1-expressing vector.
(2) Preparation of Rat EP1 Receptor-Expressing Cells
COS-1 cells (Dainippon Sumitomo Pharma Co., Ltd.) were cultured until they reached confluence in an incubator at 37° C. under a 5% CO2 gas condition, using a D-MEM liquid medium (high glucose and L-glutamine contained, Invitrogen Corporation) to which a penicillin-streptomycin solution (Invitrogen Corporation, final concentration: 100 U/mL as benzylpenicillin; 100 μg/mL as streptomycin) as an antibiotic, MEM nonessential amino acids (Invitrogen Corporation, final concentration: 0.1 mM), and fetal calf serum (Sanko Junyaku Co., Ltd., final concentration: 10%) were added.
The cells that had reached confluence were stripped with 0.05% trypsin/0.53 mM EDTA.4Na, and resuspended in a D-MEM liquid medium (high glucose and L-glutamine contained, Invitrogen Corporation) to which an MEM nonessential amino acid (final concentration: 0.1 mM) and fetal calf serum (final concentration: 10%) were added. In each well of a Poly D-lysine-coated 96-well microplate (BD BioCoat (registered trademark), Nippon Becton Dickinson Company, Ltd.), this resuspended cell suspension culture was prepared to be 5×10^4 cells/well in 100 μL of the liquid medium, and 100 μL of the cell suspension was seeded on each well. After seeding, the cells were cultured in an incubator at 37° C. under a 5% CO2 gas condition. At a point when the cells for introduction of a rat EP1-expressing vector were adhered (about 2 hours after seeding), introduction of the rat EP1-expressing vector was carried out in the following order.
For introduction of the rat EP1-expressing vector, Lipofectamine 2000 (Invitrogen Japan K. K.) was used. The rat EP1-expressing vector was diluted with OPTI-MEM (registered trademark) I Reduced-Serum Medium (Invitrogen Japan K. K.) to 200 ng/25 μL/well, and at the same time, Lipofectamine 2000 (Invitrogen Japan K. K.) was also diluted with OPTI-MEM (registered trademark) I Reduced-Serum Medium (Invitrogen Japan K. K.) to 0.5 μL/25 μL/well, followed by incubation at room temperature for 5 minutes. […]
Background: Calcium flux is commonly read through the fluorescence of an indicator in the cells.

Test [1] deals with Sulprostone-Induced Bladder Contraction. As to the kind of experiment: Inhibitory effect of compound on sulprostone-induced bladder contraction. Type of test: in vivo, rat. The note with it: female SD rats, urethane anesthesia, sulprostone 0.3 mg/kg s.c., test agent 1.0 mg/kg intravenously; for Bladder Contraction Inhibition Rate 15 minutes: 15 minutes from administration; for Bladder Contraction Inhibition Rate 60 minutes: 60 minutes from administration. The text has this:
Inhibitory Effect of Compound on Sulprostone-Induced Bladder Contraction
Female SD rats were used. Under urethane anesthesia (1.25 g/kg, administered subcutaneously), a tracheal cannula (Size 8, HIBIKI) and a femoral vein cannula for administration (23 G needle-equipped PESO) were inserted thereinto. The bladder cannula (PESO) was inserted from the bladder apex. The bladder cannula was connected to a three-way stopcock, and then, one was connected to a pressure transducer and the other was connected to a syringe filled with saline. Saline was injected to the bladder at an injection rate of 3.6 mL/hour and the bladder contraction pressure was recorded at the time of injection with a recorder (RECTI-HORITZ-8K, NEC Corporation). After 10 minutes from stabilization of the bladder contraction pressure during urination, sulprostone was administered subcutaneously (0.3 mg/kg). Then, at the time point when the bladder contraction pressure became constant, a test agent was administered intravenously (1.0 mg/kg). An average bladder contraction pressure during the 10 minute period before administration of sulprostone was taken as a baseline (0%). Further, an average bladder contraction pressure during the 10 minute period directly before administration of the test agent was taken as a maximum bladder contraction pressure (100%). The average bladder contraction pressures were measured during 5 minutes before and after at 15 minutes and 60 minutes from administration of the test agent. The ratio of this measured value to the maximum bladder contraction pressure was calculated by the following equation and taken as an average bladder contraction rate after administration of the test agent: (Average Bladder Contraction Rate after Administration of Test Agent (%))=[(Average Bladder Contraction Pressure after Administration of Test Agent)/(Maximum Bladder Contraction Pressure)]×100 EQUATION 1
In addition, the difference between the maximum bladder contraction rate (100%) and the average bladder contraction rate (%) after administration of the test agent was calculated by the following equation and taken as a bladder contraction inhibition rate of the test agent: (Bladder Contraction Inhibition Rate)=100%−(Average Bladder Contraction Rate after Administration of Test Agent (%)) EQUATION 2

Broadly, the IC50 is the concentration that inhibits the measured activity by half. Regarding `COc1ccc2c(Cc3cccc(C(=O)NS(C)(=O)=O)n3)c(-c3ccccc3)[nH]c2c1` [Example 2-1, N-Methanesulfonyl-6-(6-methoxy-2-phenyl-1H-indol-3-ylmethyl)pyridine-2-carboxamide], the IC50 on rat EP1 receptor is 27 nM. In addition, in test [1], the “Bladder Contraction Inhibition Rate 15 minutes” value came out at 68.3% and the “Bladder Contraction Inhibition Rate 60 minutes” value was 84.0%. `CS(=O)(=O)NC(=O)c1cccc(Cc2c(-c3ccccc3)[nH]c3cc(C4CC4)ccc23)n1` [Example 2-2, 6-(6-Cyclopropyl-2-phenyl-1H-indol-3-ylmethyl)-N-methanesulfonylpyridine-2-carboxamide]: the IC50 at rat EP1 receptor was 29 nM. Also, in test [1], the “Bladder Contraction Inhibition Rate 15 minutes” value is listed as 90.0% and the “Bladder Contraction Inhibition Rate 60 minutes” value was determined as 70.4%. As for `Cc1ccc2c(Cc3cccc(C(=O)NS(C)(=O)=O)n3)c(-c3ccccc3)[nH]c2c1` [Example 3-1, N-Methanesulfonyl-6-(6-methyl-2-phenyl-1H-indol-3-ylmethyl)pyridine-2-carboxamide], the IC50 at rat EP1 receptor turned out to be 33 nM. In test [1], the “Bladder Contraction Inhibition Rate 15 minutes” value is reported as 77.3% and the “Bladder Contraction Inhibition Rate 60 minutes” value is listed as 78.2%. For `CCS(=O)(=O)NC(=O)c1cccc(Cc2c(-c3ccccc3)[nH]c3cc(OC)ccc23)n1` [Example 3-6] the same measures were 18 nM, 67.5% and 63.6%. Regarding `COc1cc2[nH]c(-c3ccccc3)c(Cc3cccc(C(=O)NS(C)(=O)=O)n3)c2cc1F` [Example 3-9, 6-(5-fluoro-6-methoxy-2-phenyl-1H-indol-3-ylmethyl)-N-methanesulfonylpyridine-2-carboxamide], on rat EP1 receptor, the IC50 turned out to be 25 nM. In addition, in test [1], the “Bladder Contraction Inhibition Rate 15 minutes” value was found to be 76.4% and the “Bladder Contraction Inhibition Rate 60 minutes” value was determined as 78.9%. Regarding `Cc1ccc2c(Cc3cccc(-c4nnn[nH]4)n3)c(-c3ccoc3)[nH]c2c1` [Example 17-8], the IC50 at rat EP1 receptor worked out at 7.3 nM. Take `c1cc(Cc2c(-c3ccoc3)[nH]c3cc(C4CC4)ccc23)nc(-c2nnn[nH]2)c1` [Example 17-9]: the half-inhibitory concentration (IC50) on rat EP1 receptor came out at 10 nM.

Regarding `CCC(C)c1[nH]c2cc(OC)ccc2c1Cc1cccc(-c2nnn[nH]2)n1` (centres unmarked) [Example 17-10], on rat EP1 receptor, the IC50 turned out to be 22 nM. With `CC1(c2[nH]c3cc(C4CC4)ccc3c2Cc2cccc(-c3nnn[nH]3)n2)CC1` [Example 17-13, 6-cyclopropyl-2-(1-methylcyclopropyl)-3-[6-(1H-tetrazol-5-yl)pyridin-2-ylmethyl]-1H-indole], on rat EP1 receptor, the half-maximal inhibitory concentration (IC50) turned out to be 28 nM. In the case of `CC1(c2[nH]c3cc(Cl)ccc3c2Cc2cccc(-c3nnn[nH]3)n2)CC1` [Example 17-14, 6-chloro-2-(1-methylcyclopropyl)-3-[6-(1H-tetrazol-5-yl)pyridin-2-ylmethyl]-1H-indole], on rat EP1 receptor, the IC50 came to 24 nM.

`COc1cc2[nH]c(-c3ccccc3)c(Cc3cccc(C(=O)NS(=O)(=O)C(C)C)n3)c2cc1F` [Example 18-3]: the IC50 on rat EP1 receptor came to 41 nM. Regarding `COc1cc2[nH]c(-c3ccccc3)c(Cc3cccc(C(=O)NS(=O)(=O)C4CC4)n3)c2cc1F` [Example 18-4], the IC50 at rat EP1 receptor turned out to be 35 nM. Turning to `CCCS(=O)(=O)NC(=O)c1cccc(Cc2c(-c3ccccc3)[nH]c3cc(OC)c(F)cc23)n1` [Example 18-5], the IC50 at rat EP1 receptor turned out to be 32 nM.

With `CCS(=O)(=O)NC(=O)c1cccc(Cc2c(-c3ccsc3)[nH]c3cc(C)ccc23)n1` [Example 18-9], on rat EP1 receptor, the IC50 is 23 nM. In the case of `Cc1ccc2c(Cc3cccc(C(=O)NS(=O)(=O)C(C)C)n3)c(-c3ccsc3)[nH]c2c1` [Example 18-10], the IC50 on rat EP1 receptor is 26 nM.

For `COc1cc2[nH]c(-c3ccccc3)c(Cc3cccc(C(=O)NS(=O)(=O)c4ccccc4)n3)c2cc1F` [Example 18-11], the IC50 on rat EP1 receptor came to 27 nM. For `COc1ccc2c(Cc3cccc(C(=O)NS(=O)(=O)c4ccccc4F)n3)c(C(C)(C)C)[nH]c2c1` [Example 18-13], the IC50 at rat EP1 receptor came to 40 nM. `COc1ccc2c(Cc3cccc(/C=C/c4nnn[nH]4)n3)c(-c3ccccc3)[nH]c2c1` [Example 19, 6-Methoxy-2-phenyl-3-{6-[(E)-2-(1H-tetrazol-5-yl)vinyl]pyridine-2-ylmethyl}-1H-indole]: the half-inhibitory concentration (IC50) on rat EP1 receptor came to 34 nM.

For the compound `COc1cc2c(Cc3cccc(-c4nnn[nH]4)n3)c(C3(C)CC3)[nH]c2cc1Cl` [Example 20-1, 6-chloro-5-methoxy-2-(1-methylcyclopropyl)-3-[6-(1H-tetrazol-5-yl)pyridin-2-ylmethyl]-1H-indole], the half-maximal inhibitory concentration (IC50) at rat EP1 receptor came to 27 nM. On to `CCc1ccc2c(Cc3cccc(-c4nnn[nH]4)n3)c(C3(C)CC3)[nH]c2c1` [Example 20-2, 6-ethyl-2-(1-methylcyclopropyl)-3-[6-(1H-tetrazol-5-yl)pyridin-2-ylmethyl]-1H-indole], for which the IC50 at rat EP1 receptor amounted to 15 nM. As for `COc1cc2[nH]c(C3(C)CC3)c(Cc3cccc(-c4nnn[nH]4)n3)c2cc1C` [Example 20-4, 6-methoxy-5-methyl-2-(1-methylcyclopropyl)-3-[6-(1H-tetrazol-5-yl)pyridin-2-ylmethyl]-1H-indole], at rat EP1 receptor, the IC50 was determined as 14 nM. Regarding `COc1ccc2c(Cc3cccc(-c4nnn[nH]4)n3)c(-c3cncnc3)[nH]c2c1` [Example 23, 6-Methoxy-2-pyrimidin-5-yl-3-[6-(1H-tetrazol-5-yl)pyridin-2-ylmethyl]-1H-indole], the IC50 on rat EP1 receptor turned out to be 11 nM.

The record behind these values is patent publication US8815903B2, “Indole derivative and pharmacologically acceptable salt thereof” (Kissei Pharmaceutical Co., Ltd., priority 2011, dated 2014).
